Earlier results on 1 compound are cited in patent US7759338B2, “Soluble 1,4 benzodiazepine compounds and stable salts thereof” (The Regents of the University of Michigan, priority 2006, dated 2010).

As a reminder, the IC50 is the concentration that gives 50% inhibition. As a reminder, the LD50 is the dose at which mortality reaches 50%.

For series [1], the target named is mitochondrial F1Fo-ATPase. Conditions: F1Fo-ATPase inhibition.
A further series concerns rodents. Particulars: two daily doses.

On to `CC[C@H]1/C=C/C=C/C[C@@H](C)[C@H](O)[C@@](C)(O)C(=O)[C@@H](C)[C@H](O)[C@@H](C)C(=O)[C@@H](C)[C@H](O)[C@@H](C)/C=C/C(=O)O[C@@H]2[C@H](C)[C@H](CC1)O[C@]1(CC[C@H](C)[C@H](C[C@@H](C)O)O1)[C@H]2C` [oligomycin], for which the IC50 in series [1] is 10 nM. The LD50 in the series with rodents was 0.5 mg/kg.
